Where a name gives a salt, the structure may show the parent alone.
Columns and labels:
MDA-MB-435 = assay: Growth inhibition, neutral red assay, MDA-MB-435; type: cell-based, human; settings: free base, five days
Description: (§1) Compound I's activity is not confined to activity against colon cancer cell lines or animal models of colon cancer. It has a broad range of anti-neoplastic effects in various neoplastic cell lines. Various types of human cancer cell lines were propagated under sterile conditions in RPMI 1640 medium with 10% fetal bovine serum, 2 mM L-glutamine and sodium bicarbonate. To determine growth inhibitory effects of Compound I, cells were seeded in 96-well plates at a density of 1000 cells per well. Twenty-four hours after plating, the cells were dosed with various concentrations of the free base of Compound I solubilized in DMSO (final concentration 0.1%). The effect of the drug on tumor cell growth was determined using the neutral red cytotoxicity assay following five days of continuous treatment. Neutral red is a dye that is selectively taken up by viable cells by an ATP-dependent transport mechanism.

UISO-BCA-1 = assay: Growth inhibition, neutral red assay, UISO-BCA-1; type: cell-based, human; settings: free base, five days
Description: as §1

NCI-H23 = assay: Growth inhibition, neutral red assay, NCI-H23; type: cell-based, human; settings: free base, five days
Description: as §1

MDA-MB-231 = assay: Growth inhibition, neutral red assay, MDA-MB-231; type: cell-based, human; settings: free base, five days
Description: as §1

[1] = tested on: PrEC primary prostate epithelial cell cultures; assay: Histone-associated DNA fragmentation in normal prostate epithelial cells; type: cell-based; settings: 50 μM, up to 4 days
Description: The androgen-sensitive prostate tumor cell line, LNCaP (from ATCC (Rockville, Md.)) was propogated under standard conditions using […] medium containing 5% fetal calve serum and 2 mM glutamine. Primary prostate epithelial cell cultures (PrEC) derived from normal prostate (from Clonetics Inc. (San Diego, Calif.)) were grown under the same conditions as the tumor cell line except a serum-free medium optimized for the growth of such cultures was used (Clonetics Inc). For the experiments, LNCaP or PrEC cells were seeded in 96 well plates at a density of 10,000 cells per well. After 24 hours, the cells were treated with either vehicle (0.1% DMSO) or 50 μM Compound I (free base) solubilized in DMSO. After various drug treatment times (4, 24, 48, 72, or 99 hours) the cells were lysed and processed for measurement of histone-associated DNA as an indicator of apoptotic cell death (see, Piazza et al., Cancer Research 57: 2452-2459, 1997).
This is in marked contrast to conventional chemotherapeutics that induce apoptosis or necrosis in rapidly growing normal and neoplastic cells alike.

NCI-H322M = assay: Growth inhibition, neutral red assay, NCI-H322M; type: cell-based, human; settings: free base, five days
Description: as §1

[2] = tested on: KNRK, Kidney (ras transformed); assay: Growth inhibition, SRB assay, KNRK; type: cell-based
UACC375, Melanoma = assay: Growth inhibition, SRB assay, UACC375; type: cell-based; settings: Homo sapiens, UACC-375
Text: (§2) A compound's ability to inhibit tumor cell growth can be measured using the HT-29 human colon carcinoma cell line obtained from ATCC. HT-29 cells have previously been characterized as a relevant colon tumor cell culture model (Fogh, J., and Trempe, G. In: Human Tumor Cells in Vitro, J. Fogh (eds.), Plenum Press, New York, pp. 115-159, 1975). HT-29 cells are maintained in RPMI media supplemented with 5% fetal bovine calf serum (Gemini Bioproducts, Inc., Carlsbad, Calif.) and 2 mm glutamine, and 1% antibiotic-antimycotic in a humidified atmosphere of 95% air and 5% CO2 at 37° C. Briefly, HT-29 cells are plated at a density of 500 cells/well in 96 well microtiter plates and incubated for 24 hours at 37° C. prior to the addition of compound. […] After six days in culture, the cells are fixed by the addition of cold trichloroacetic acid to a final concentration of 10% and protein levels are measured using the sulforhodamine B (SRB) colorimetric protein stain assay as previously described by Skehan, P., Storeng, R., Scudiero, D., Monks, A., McMahon, J., Vistica, D., Warren, J. T., Bokesch, H., Kenney, S., and Boyd, M. R., “New Colorimetric Assay For Anticancer-Drug Screening,” J. Natl. Cancer Inst. […]
(§3) To show the effectiveness of this screening method on various forms of neoplasia, compounds were tested on numerous cell lines. […] The IC50 values were determined by the SRB assay. […]

[3] = tested on: PKG activity in HCT116 colon cancer cells; assay: PKG assay of lysates of drug-treated HCT116 cells; type: cell-based
Text: To test the effect of cGMP-specific PDE inhibition on neoplasia containing the β-catenin mutation, HCT116 colon cancer cells were employed. HCT116 is known to contain the β-catenin mutation, but is known not to contain the APC mutation.
The same procedure is used to grow the HCT116 cells as is used in the SW480 procedure described above. In this experiment, only exisulind and controls were used.

[4] = tested on: Bronchial Epithelial Cells; assay: Growth inhibition, SRB assay, bronchial epithelial cells; type: cell-based; settings: Epithelial cell
Text: as §2, §3

[5] = tested on: NRK, Kidney (non ras-transformed); assay: Growth inhibition, SRB assay, NRK; type: cell-based

Compound	GI50 (MDA-MB-435; Homo sapiens, MDA-MB-435, 120 h) [µM]	GI90 μM, MDA-MB-435 (MDA-MB-435) [µM]	GI50 (UISO-BCA-1; Homo sapiens, 120 h) [µM]	GI90 μM, UISO-BCA-1 (UISO-BCA-1) [µM]	GI50 (NCI-H23; Homo sapiens, NCI-H23, 120 h) [µM]	GI90 μM, NCI-H23 (NCI-H23) [µM]	GI50 (MDA-MB-231; Homo sapiens, MDA-MB-231, 120 h) [µM]	GI90 μM, MDA-MB-231 (MDA-MB-231) [µM]	DNA fragmentation in PrEC (normal prostate) cells [1]	GI50 (NCI-H322M; Homo sapiens, NCI-H322M, 120 h) [µM]	GI90 μM, NCI-H322M (NCI-H322M) [µM]	IC50 [2] [µM]	IC50 (UACC375, Melanoma) [µM]	PKG activation relative to controls [3]	IC50 [4] [µM]	IC50 [5] [µM]
CC1=C(CC(=O)NCc2ccccc2)c2cc(F)ccc2/C1=C\c1ccncc1 [Compound I, (Z)-5-fluoro-2-methyl-(4-pyridylidene)-3-(N-benzyl)indenylacetamide hydrochloride]	1.6	2.3	1.5	4.7	1.7	2.5	1.8	77.6	did not affect DNA fragmentation	2.1	13.2					
CC1=C(CC(=O)O)c2cc(F)ccc2/C1=C\c1ccc(S(C)(=O)=O)cc1 [Exisulind, 5-fluoro-2-methyl-1-(p-methylsulfonylbenzylidene)-3-indenylacetic acid]												240	100	yielded PKG that was phosphorylated to a greater extent than the corresponding controls	90	180

Source: patent US20030109418A1, “Methods for identifying compounds for inhibition of neoplastic lesions, and pharmaceutical compositions containing such compounds” (priority 1999, published 2003)
